Assay results as given in PubChem BioAssay AID248 (DTP/NCI, 2004).
Values joined by “and” are separate entries in the source; they are usually repeats but may differ in a detail not shown here. Equal entries are not always repeated. Inconclusive results and toxic doses are left out.

Tested on: L1210 leukemia ip in BDF1 mice, survival T/C
Assay: NCI In Vivo Anticancer Drug Screen. Data for tumor model L1210 Leukemia (intraperitoneal) in B6D2F1 (BDF1) mice
Conditions: endpoint: mean survival time, higher = longer survival
Summary of the method: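 Survival endpoint. Drug-treated group vs vehicle group, expressed as T divided by C. Tumor passaged by transplantation.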

[1] = dose: 100.0 mg/kg/injection, schedule: Q01DX009 (ip), vehicle: Klucel (hydroxypropylcellulose) (HPC)
[2] = dose: 200.0 mg/kg/injection, schedule: Q01DX009 (ip), vehicle: Klucel (hydroxypropylcellulose) (HPC)
[3] = dose: 100.0 mg/kg/injection, schedule: Q04DX003 (ip), vehicle: Klucel (hydroxypropylcellulose) (HPC)
[4] = dose: 200.0 mg/kg/injection, schedule: Q04DX003 (ip), vehicle: Klucel (hydroxypropylcellulose) (HPC)
[5] = dose: 400.0 mg/kg/injection, schedule: Q04DX003 (ip), vehicle: Klucel (hydroxypropylcellulose) (HPC)
[6] = dose: 100.0 mg/kg/injection, schedule: Q01DX001 (ip), vehicle: saline
[7] = dose: 25.0 mg/kg/injection, schedule: Q04DX003 (ip), vehicle: saline
[8] = dose: 50.0 mg/kg/injection, schedule: Q04DX003 (ip), vehicle: saline
[9] = dose: 50.0 mg/kg/injection, schedule: Q01DX009 (ip), vehicle: saline with Tween-80
[10] = dose: 100.0 mg/kg/injection, schedule: Q01DX009 (ip), vehicle: saline with Tween-80
[11] = dose: 100.0 mg/kg/injection, schedule: Q01DX001 (ip), vehicle: carboxymethylcellulose (CMC)
[12] = dose: 200.0 mg/kg/injection, schedule: Q01DX001 (ip), vehicle: carboxymethylcellulose (CMC)
[13] = dose: 400.0 mg/kg/injection, schedule: Q01DX001 (ip), vehicle: carboxymethylcellulose (CMC)

CC1CN(Cc2ccccc2)CC(C)N1C(=O)c1ccccc1 (centres undefined)
T/C (dose: 100.0 mg/kg/injection, schedule: Q01DX009 (ip), vehicle: water): 95 % of control
T/C (dose: 100.0 mg/kg/injection, schedule: Q04DX003 (ip), vehicle: water): 109 % of control
T/C (dose: 200.0 mg/kg/injection, schedule: Q01DX009 (ip), vehicle: water): 93 % of control
T/C (dose: 200.0 mg/kg/injection, schedule: Q04DX003 (ip), vehicle: water): 113 % of control
T/C (dose: 400.0 mg/kg/injection, schedule: Q01DX009 (ip), vehicle: water): 104 % of control
T/C (dose: 400.0 mg/kg/injection, schedule: Q04DX003 (ip), vehicle: water): 110 % of control

O=c1[nH]c2nc3ccccc3nc2c(=O)n1O
T/C [1]: 100 % of control
T/C [2]: 105 % of control

COC(=O)CC(c1ccc(OC)cc1)C(CC(=O)OC)c1ccc(OC)cc1 (centres undefined)
T/C [3]: 98 % of control
T/C [4]: 93 % of control
T/C [5]: 104 % of control

CC1(C)N=C(N)N=C(N)N1c1ccc(OCc2ccc(C(=O)Nc3cccc(S(=O)(=O)F)c3)cc2)c(Cl)c1
T/C (dose: 25.0 mg/kg/injection, schedule: Q01DX009 (ip), vehicle: Klucel (hydroxypropylcellulose) (HPC)): 100 % of control
T/C [3]: 124 % of control
T/C [2]: 86 % of control
T/C [4]: 162 % of control and 168 % of control
T/C [5]: 105 % of control and 106 % of control and 116 % of control

Cc1cc(=O)n2c3c(ccc([N+](=O)[O-])c13)OC2
T/C [6]: 104 % of control
T/C (dose: 200.0 mg/kg/injection, schedule: Q01DX001 (ip), vehicle: saline): 99 % of control
T/C (dose: 400.0 mg/kg/injection, schedule: Q01DX001 (ip), vehicle: saline): 95 % of control

O=C(O)c1ccc(OCCc2ccccc2)cc1
T/C (dose: 75.0 mg/kg/injection, schedule: Q01DX001 (ip), vehicle: saline): 98 % of control
T/C (dose: 75.0 mg/kg/injection, schedule: Q04DX003 (ip), vehicle: saline): 103 % of control
T/C (dose: 150.0 mg/kg/injection, schedule: Q01DX001 (ip), vehicle: saline): 98 % of control
T/C (dose: 150.0 mg/kg/injection, schedule: Q04DX003 (ip), vehicle: saline): 98 % of control
T/C (dose: 300.0 mg/kg/injection, schedule: Q01DX001 (ip), vehicle: saline): 95 % of control
T/C (dose: 300.0 mg/kg/injection, schedule: Q04DX003 (ip), vehicle: saline): 93 % of control

N=C(N)c1ccc(-c2nc3ccc(C(=N)N)cc3[nH]2)cc1
T/C (dose: 12.5 mg/kg/injection, schedule: Q04DX003 (ip), vehicle: saline): 100 % of control and 103 % of control
T/C [7]: 100 % of control and 103 % of control
T/C [8]: 100 % of control and 103 % of control

O=C(O)CNCc1ccc(Cl)c(Cl)c1
T/C (dose: 75.0 mg/kg/injection, schedule: Q01DX009 (ip), vehicle: saline): 100 % of control
T/C (dose: 100.0 mg/kg/injection, schedule: Q01DX009 (ip), vehicle: saline): 97 % of control and 120 % of control
T/C (dose: 100.0 mg/kg/injection, schedule: Q04DX003 (ip), vehicle: saline): 96 % of control
T/C (dose: 150.0 mg/kg/injection, schedule: Q01DX009 (ip), vehicle: saline): 99 % of control
T/C (dose: 200.0 mg/kg/injection, schedule: Q01DX009 (ip), vehicle: saline): 111 % of control
T/C (dose: 200.0 mg/kg/injection, schedule: Q04DX003 (ip), vehicle: saline): 102 % of control
T/C (dose: 400.0 mg/kg/injection, schedule: Q01DX009 (ip), vehicle: saline): 95 % of control
T/C (dose: 400.0 mg/kg/injection, schedule: Q04DX003 (ip), vehicle: saline): 90 % of control

CC(C)(C#N)NC(=O)NC(C)(C)C#N
T/C [9]: 101 % of control
T/C [10]: 97 % of control
T/C (dose: 200.0 mg/kg/injection, schedule: Q01DX009 (ip), vehicle: saline with Tween-80): 97 % of control

CCOC(=O)c1cnn(C(N)=S)c1N
T/C [9]: 95 % of control
T/C [10]: 98 % of control
T/C (dose: 100.0 mg/kg/injection, schedule: Q04DX003 (ip), vehicle: saline with Tween-80): 102 % of control
T/C (dose: 200.0 mg/kg/injection, schedule: Q04DX003 (ip), vehicle: saline with Tween-80): 105 % of control
T/C (dose: 400.0 mg/kg/injection, schedule: Q04DX003 (ip), vehicle: saline with Tween-80): 96 % of control

CC(Cl)CN(Cc1c(O)ccc2ccccc12)CC(C)Cl (centres undefined)
T/C [11]: 96 % of control
T/C [12]: 107 % of control
T/C [13]: 101 % of control

COC(=O)c1ccccc1NC(=O)Nc1cc(Cl)ccc1OC
T/C [1]: 89 % of control
T/C [3]: 106 % of control
T/C [2]: 103 % of control
T/C [4]: 90 % of control
T/C (dose: 400.0 mg/kg/injection, schedule: Q01DX009 (ip), vehicle: Klucel (hydroxypropylcellulose) (HPC)): 107 % of control
T/C [5]: 95 % of control

CC1(C)N=C(N)N=C(N)N1c1cccc(C(=O)Nc2ccc(S(=O)(=O)F)cc2)c1
T/C (dose: 0.8 mg/kg/injection, schedule: Q01DX009 (ip), vehicle: saline): 98 % of control
T/C (dose: 4.0 mg/kg/injection, schedule: Q01DX009 (ip), vehicle: saline): 101 % of control
T/C (dose: 20.0 mg/kg/injection, schedule: Q01DX009 (ip), vehicle: saline): 98 % of control

NS(=O)(=O)c1ncnc2nc[nH]c12
T/C (dose: 5.0 mg/kg/injection, schedule: Q01DX Z (ip), vehicle: methylcellulose (MC)): 108 % of control
T/C (dose: 10.0 mg/kg/injection, schedule: Q01DX Z (ip), vehicle: methylcellulose (MC)): 109 % of control
T/C (dose: 22.0 mg/kg/injection, schedule: Q01DX001 (ip), vehicle: carboxymethylcellulose (CMC)): 109 % of control and 117 % of control
T/C (dose: 22.0 mg/kg/injection, schedule: Q01DX Z (ip), vehicle: carboxymethylcellulose (CMC)): 124 % of control
T/C (dose: 24.75 mg/kg/injection, schedule: Q01DX009 (ip), vehicle: saline): 121 % of control
T/C [7]: 117 % of control
T/C (dose: 30.0 mg/kg/injection, schedule: Q04DX003 (ip), vehicle: saline): 121 % of control
T/C (dose: 33.0 mg/kg/injection, schedule: Q01DX001 (ip), vehicle: carboxymethylcellulose (CMC)): 107 % of control and 109 % of control
T/C (dose: 33.0 mg/kg/injection, schedule: Q01DX Z (ip), vehicle: carboxymethylcellulose (CMC)): 120 % of control
T/C (dose: 37.5 mg/kg/injection, schedule: Q01DX009 (ip), vehicle: saline): 119 % of control
T/C (dose: 50.0 mg/kg/injection, schedule: Q01DX001 (ip), vehicle: carboxymethylcellulose (CMC)): 114 % of control and 119 % of control
T/C [8]: 120 % of control
T/C (dose: 66.0 mg/kg/injection, schedule: Q04DX003 (ip), vehicle: saline): 114 % of control
T/C (dose: 75.0 mg/kg/injection, schedule: Q01DX001 (ip), vehicle: carboxymethylcellulose (CMC)): 117 % of control
T/C (dose: 75.0 mg/kg/injection, schedule: Q01DX009 (ip), vehicle: saline with Tween-80): 101 % of control
T/C (dose: 75.0 mg/kg/injection, schedule: Q01DX Z (ip), vehicle: carboxymethylcellulose (CMC)): 152 % of control and 159 % of control and 165 % of control
T/C [6]: 115 % of control
T/C (dose: 114.0 mg/kg/injection, schedule: Q01DX Z (ip), vehicle: carboxymethylcellulose (CMC)): 93 % of control
T/C (dose: 200.0 mg/kg/injection, schedule: Q01DX Z (ip), vehicle: methylcellulose (MC)): 113 % of control

Brc1cccc[n+]1-c1cc(-[n+]2ccccc2Br)cc(-[n+]2ccccc2Br)c1
T/C (dose: 1.17 mg/kg/injection, schedule: Q01DX001 (ip), vehicle: other): 95 % of control
T/C (dose: 2.34 mg/kg/injection, schedule: Q01DX001 (ip), vehicle: other): 102 % of control
T/C (dose: 4.69 mg/kg/injection, schedule: Q01DX001 (ip), vehicle: other): 101 % of control

CCCCN1C(=O)C(c2ccccc2)C2(CCN(C)CC2)C1=O (centres undefined)
T/C (dose: 25.0 mg/kg/injection, schedule: Q01DX001 (ip), vehicle: Klucel (hydroxypropylcellulose) (HPC)): 93 % of control
T/C (dose: 50.0 mg/kg/injection, schedule: Q01DX001 (ip), vehicle: Klucel (hydroxypropylcellulose) (HPC)): 91 % of control
T/C (dose: 100.0 mg/kg/injection, schedule: Q01DX001 (ip), vehicle: Klucel (hydroxypropylcellulose) (HPC)): 97 % of control and 98 % of control

CCOc1ccc(Br)cc1C1N(Cc2ccc(OC)cc2)CCCN1Cc1ccc(OC)cc1
T/C [11]: 96 % of control
T/C [12]: 93 % of control
T/C [13]: 91 % of control
